Tests used:
p300 HAT domain = target: T1, p300 HAT domain (Homo sapiens, UniProt Q09472); test: Core histone acetylation filter binding HAT assay, p300; format: biochemical; conditions: core histones, 30 minutes 30° C
T1 construct: 20 U/mL of HAT enzyme (p300 HAT domain; from Upstate); purchased Upstate (Lake Placid, N.Y.)
T1 sequence (Q09472 1287-1663 limits assumed): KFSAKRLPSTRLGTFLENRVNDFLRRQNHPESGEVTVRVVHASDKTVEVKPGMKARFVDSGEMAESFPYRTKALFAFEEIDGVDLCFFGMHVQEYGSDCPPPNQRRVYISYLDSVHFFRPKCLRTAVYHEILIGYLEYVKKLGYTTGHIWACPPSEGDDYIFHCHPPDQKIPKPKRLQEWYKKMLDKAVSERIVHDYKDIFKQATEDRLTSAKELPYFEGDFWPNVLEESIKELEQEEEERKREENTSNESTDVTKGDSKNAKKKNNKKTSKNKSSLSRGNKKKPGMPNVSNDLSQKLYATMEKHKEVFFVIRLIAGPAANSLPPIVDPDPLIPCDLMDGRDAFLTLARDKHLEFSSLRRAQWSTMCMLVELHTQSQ
Experimental: (§1) In the presence of 0.5 μCi [^3H]acetyl Co A, 10 μg core histones was incubated with either 0.5 μg pCAF (filled circles, […]) or 0.83 μg p300 HAT domain (open circles, ∘) and the indicated heparin concentrations for 30 minutes at 30° C. Formation of [^3H]acetylated core histones was determined by vacuum filtration of the samples across a nitrocellulose membrane and quantitated by liquid scintillation counting. The data is expressed as the mean % Control ±SD. Background CPM in samples without added enzyme was 5781.25 while [^3H]acetylated histone CPM in samples without heparin were 16484.5 for the pCAF containing samples and 9960.5 for the p300 HAT domain samples.
Heparin-mediated inhibition of HAT activity was determined using two independent methods. The first assay method used a modified protocol to measure the ability of pCAF or p300 to acetylate a synthetic, biotinylated peptide of histone H3 or H4 in the absence and presence of heparin or its derivatives. Commercially available pCAF or p300 HAT domain were added to an iced reactions mixture containing 3 μg biotinylated Histone H3 or H4 peptide, 50 mM tris pH 7.4, 1 mM EDTA with and without the indicated concentrations of heparin. […] The filter was allowed to air dry and the filters were processed and counted using liquid scintillation methods.

pCAF = target: T2, pCAF (Homo sapiens, UniProt Q92831); test: Core histone acetylation filter binding HAT assay, pCAF; format: biochemical; conditions: core histones, 30 minutes 30° C
T2 construct: purchased BIOMOL International (Plymouth Meeting, Pa.)
T2 sequence (Q92831 whole entry): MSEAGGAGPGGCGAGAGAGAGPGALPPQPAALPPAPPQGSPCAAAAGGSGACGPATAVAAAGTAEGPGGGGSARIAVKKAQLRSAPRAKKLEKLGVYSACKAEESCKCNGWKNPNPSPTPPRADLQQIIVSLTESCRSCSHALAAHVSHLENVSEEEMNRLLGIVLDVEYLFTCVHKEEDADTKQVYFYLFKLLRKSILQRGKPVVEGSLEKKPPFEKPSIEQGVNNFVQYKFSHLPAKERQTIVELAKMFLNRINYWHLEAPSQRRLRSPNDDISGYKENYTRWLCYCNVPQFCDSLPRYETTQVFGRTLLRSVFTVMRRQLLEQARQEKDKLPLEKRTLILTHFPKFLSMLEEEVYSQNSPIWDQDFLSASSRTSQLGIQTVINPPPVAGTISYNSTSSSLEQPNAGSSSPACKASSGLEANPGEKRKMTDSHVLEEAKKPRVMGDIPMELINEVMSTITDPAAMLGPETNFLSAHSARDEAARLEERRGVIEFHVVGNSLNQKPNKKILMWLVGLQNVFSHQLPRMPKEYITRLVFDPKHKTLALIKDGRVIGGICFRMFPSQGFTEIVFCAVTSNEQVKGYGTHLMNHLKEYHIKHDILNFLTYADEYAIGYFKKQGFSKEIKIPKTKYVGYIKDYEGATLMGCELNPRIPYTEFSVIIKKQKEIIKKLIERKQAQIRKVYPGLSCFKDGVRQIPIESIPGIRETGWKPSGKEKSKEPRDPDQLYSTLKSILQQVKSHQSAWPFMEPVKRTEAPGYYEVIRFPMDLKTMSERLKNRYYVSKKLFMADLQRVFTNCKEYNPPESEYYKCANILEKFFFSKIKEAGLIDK
Experimental: as §1
10 μg core histones were incubated with 0.5 μg pCAF, 0.5 μCi [^3H]acetyl Co A and the indicated concentrations of chondroitin sulfate (filled circles, […]), dextran (open circles, ∘), D-glucosamine (filled squares, ▪), hyaluronic acid (open squares, □) or keratan sulfate (filled triangles, ▴) for 30 minutes at 30° C. 35 μl aliquots of the reaction mixtures were spotted onto nitrocellulose filter in a dot blot apparatus under vacuum to remove unincorporated [^3H]acetyl Co A. The sample wells and filters were washed with 50 mM tris pH 7.6 and the samples were processed for liquid scintillation counting. The data is expressed as the mean % Control ±SD. 100% is equal to the activity in the absence of any additives.
10 μg core histones was incubated with 0.5 μg pCAF, 0.5 μCi [^3H]acetyl Co A and the indicated concentrations of N-Desulfated Heparin (filled circles, […]) or Fully O-Desulfated Heparin (open circles, ∘) for 30 minutes at 30° C. 35 μl aliquots of the reaction mixtures were filtered through a nitrocellulose filter in a Bio Dot Apparatus under vacuum. The wells and filter were washed with 50 mM tris pH 7.6 and the membrane was processed for liquid scintillation counting. The data is expressed as the mean % Control ±SD.
FIGS. 15A and 15B show inhibition of pCAF HAT Activity by elastase generated proteoglycans. FIG. 15A, Proteoglycans (PG) were purified from pulmonary fibroblast elastase supernatants using anion exchange chromatographic methods. Heparan sulfate proteoglycan fragments (HSPGf) were generated by treating the PG fraction with 10 mU/ml chondroitinase ABC and repurifying the fragments by anion exchange chromatography. Core histones (10 μg) were incubated with 0.5 μg pCAF, 0.5 μCi [^3H]acetyl Co A and the indicated concentrations of PG (filled squares, ▪) or HSPGf (open squares, □) for 30 minutes at 30° C. 35 μl aliquots of the reaction mixtures were filtered through a nitrocellulose filter and the membrane was processed for liquid scintillation counting. The data is expressed as the mean % Control ±SD. FIG. 15B, Proteoglycans (PG) were purified from another preparation of pulmonary fibroblast elastase supernatants. Free GAG chains (B-PG) were generated by treating the PG fraction with alkaline borohydride and were recovered by anion exchange methods. Core histones (Core histones (10 μg) were incubated with 0.5 μg pCAF, 0.5 μCi [^3H]acetyl Co A and the indicated concentrations of PG (filled squares, ▪) or B-PG (open squares, □) for 30 minutes at 30° C. 35 μl aliquots of the reaction mixtures were filtered through a nitrocellulose filter and the membrane was processed for liquid scintillation counting. The data is expressed as the mean % Control ±SD.
10 μg core histones was incubated with 0.5 μg pCAF, 0.5 μCi [^3H]acetyl Co A and the indicated concentrations of 2-O-Desulfated Heparin ([…]) or 6-O-Desulfated Heparin (∘) for 30 minutes at 30° C. 35 μl aliquots of the reaction mixtures were filtered through a nitrocellulose filter in a Bio Dot Apparatus under vacuum. The wells and filter were washed with 50 mM tris pH 7.6 and the membrane was processed for liquid scintillation counting. The data is expressed as the mean % Control ±SD. […]

## heparin [reference compound]
p300 HAT domain
  50% inhibition (IC50): ~5 µg/mL
pCAF
  50% inhibition (IC50): ~7 µg/mL

Reference: patent US20080227752A1, “Methods to Inhibit Histone Acetyltransferase Using Glycosaminoglycans” (Trustees of Boston University, priority 2004, published 2008)
